From patent publication US7964376B2, “Chimeric proteins and their use in methods to screen for sweet taste modulators” (Givaudan SA, priority 2006, dated 2011)
Residues, ends and D or L forms follow the SMILES beside them.

Assays:
hCaSR = molecular target: T1, hCaSR (Homo sapiens, UniProt P41180); assay: Fluo-4 calcium assay, transiently transfected HEK293T/Gα16-gustducin 44 cells (Example 6a); assay type: cell-based; settings: for hCaSR AVG (net increase in fluorescence over baseline): mean of six replicates, Calcium Chloride (2 mM), Sucralose (0.5 mM), aspartame (0.85 mM), perillartine (50 μM), cinnamonitrile (100 EM), cyclamate (1 mM), NDHC (0.33 mM)
T1 sequence (P41180 20-1078): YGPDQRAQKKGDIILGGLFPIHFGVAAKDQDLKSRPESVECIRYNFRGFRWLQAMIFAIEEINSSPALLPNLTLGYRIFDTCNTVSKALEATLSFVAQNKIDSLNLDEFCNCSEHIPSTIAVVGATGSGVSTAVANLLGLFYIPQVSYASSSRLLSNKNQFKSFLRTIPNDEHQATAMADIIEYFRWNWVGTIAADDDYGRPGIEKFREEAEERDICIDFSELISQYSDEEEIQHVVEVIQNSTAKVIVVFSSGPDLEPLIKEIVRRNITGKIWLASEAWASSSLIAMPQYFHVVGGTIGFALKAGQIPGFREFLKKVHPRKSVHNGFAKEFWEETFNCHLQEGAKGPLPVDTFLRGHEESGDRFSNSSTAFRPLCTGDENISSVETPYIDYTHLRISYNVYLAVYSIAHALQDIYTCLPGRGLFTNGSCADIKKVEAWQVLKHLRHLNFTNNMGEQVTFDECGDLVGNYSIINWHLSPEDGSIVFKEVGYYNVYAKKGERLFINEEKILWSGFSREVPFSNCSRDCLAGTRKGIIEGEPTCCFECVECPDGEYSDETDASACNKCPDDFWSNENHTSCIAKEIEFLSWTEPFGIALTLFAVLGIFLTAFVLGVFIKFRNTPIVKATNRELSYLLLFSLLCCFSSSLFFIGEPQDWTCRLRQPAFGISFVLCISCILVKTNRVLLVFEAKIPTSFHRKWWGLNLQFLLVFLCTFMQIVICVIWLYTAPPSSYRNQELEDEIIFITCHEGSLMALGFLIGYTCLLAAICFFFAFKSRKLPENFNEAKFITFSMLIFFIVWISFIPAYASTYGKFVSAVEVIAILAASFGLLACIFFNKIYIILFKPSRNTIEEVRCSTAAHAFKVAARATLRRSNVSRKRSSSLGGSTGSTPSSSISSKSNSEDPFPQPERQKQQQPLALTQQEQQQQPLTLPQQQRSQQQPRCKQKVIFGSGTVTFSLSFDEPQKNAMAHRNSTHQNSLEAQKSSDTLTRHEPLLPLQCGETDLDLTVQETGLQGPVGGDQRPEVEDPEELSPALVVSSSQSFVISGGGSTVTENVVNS
Excerpt: The hCaSR vector is used as positive control for a GPCR that is sensitive to calcium, as it is sensitive to calcium and the calcium binding site lies in the VFT of this receptor, which is where the VFT for the chimera is derived from.
(§1) The following ligands were used for to stimulate the transfected cells in the concentrations as indicated in brackets: […]

[1] = molecular target: T2, T1R2/T1R3 sweet heterodimer (Homo sapiens, UniProt Q7RTX0+Q8TE23, C757R); assay: Fluo-4 calcium assay, transiently transfected HEK293T/Gα16-gustducin 44 cells (Examples 6a, 6b); assay type: cell-based; settings: Example 6b; mean of six replicates; Calcium Chloride (2 mM), Sucralose (0.5 mM), perillartine (50 μM)
T2 construct: expressed in transfected cells; host or cells: HEK293T cells stably expressing Ga16-gustducin 44, transient co-transfection of pcDNA3.1 constructs
T2 sequence (Q8TE23 20-839): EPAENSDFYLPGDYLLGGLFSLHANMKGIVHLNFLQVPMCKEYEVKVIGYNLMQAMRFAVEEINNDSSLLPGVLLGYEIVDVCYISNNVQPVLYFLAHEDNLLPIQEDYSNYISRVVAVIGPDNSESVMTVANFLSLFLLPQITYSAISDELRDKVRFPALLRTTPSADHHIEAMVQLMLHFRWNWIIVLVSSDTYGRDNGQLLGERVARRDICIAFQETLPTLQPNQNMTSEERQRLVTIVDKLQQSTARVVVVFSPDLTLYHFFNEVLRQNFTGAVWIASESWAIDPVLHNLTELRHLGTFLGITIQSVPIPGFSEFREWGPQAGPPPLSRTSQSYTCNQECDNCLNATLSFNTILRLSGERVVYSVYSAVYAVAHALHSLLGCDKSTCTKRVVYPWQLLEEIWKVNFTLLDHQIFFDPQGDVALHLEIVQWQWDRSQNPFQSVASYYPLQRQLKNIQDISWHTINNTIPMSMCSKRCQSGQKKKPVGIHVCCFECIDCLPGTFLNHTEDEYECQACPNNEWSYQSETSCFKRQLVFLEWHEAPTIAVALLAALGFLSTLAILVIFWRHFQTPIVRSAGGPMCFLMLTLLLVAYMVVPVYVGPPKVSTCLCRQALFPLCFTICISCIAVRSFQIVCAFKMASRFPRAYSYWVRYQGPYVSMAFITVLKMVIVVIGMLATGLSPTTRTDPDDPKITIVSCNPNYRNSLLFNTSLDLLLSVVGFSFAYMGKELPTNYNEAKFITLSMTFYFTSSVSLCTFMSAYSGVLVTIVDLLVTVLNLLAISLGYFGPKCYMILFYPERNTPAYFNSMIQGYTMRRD
T2 sequence (Q7RTX0 21-852 C757R): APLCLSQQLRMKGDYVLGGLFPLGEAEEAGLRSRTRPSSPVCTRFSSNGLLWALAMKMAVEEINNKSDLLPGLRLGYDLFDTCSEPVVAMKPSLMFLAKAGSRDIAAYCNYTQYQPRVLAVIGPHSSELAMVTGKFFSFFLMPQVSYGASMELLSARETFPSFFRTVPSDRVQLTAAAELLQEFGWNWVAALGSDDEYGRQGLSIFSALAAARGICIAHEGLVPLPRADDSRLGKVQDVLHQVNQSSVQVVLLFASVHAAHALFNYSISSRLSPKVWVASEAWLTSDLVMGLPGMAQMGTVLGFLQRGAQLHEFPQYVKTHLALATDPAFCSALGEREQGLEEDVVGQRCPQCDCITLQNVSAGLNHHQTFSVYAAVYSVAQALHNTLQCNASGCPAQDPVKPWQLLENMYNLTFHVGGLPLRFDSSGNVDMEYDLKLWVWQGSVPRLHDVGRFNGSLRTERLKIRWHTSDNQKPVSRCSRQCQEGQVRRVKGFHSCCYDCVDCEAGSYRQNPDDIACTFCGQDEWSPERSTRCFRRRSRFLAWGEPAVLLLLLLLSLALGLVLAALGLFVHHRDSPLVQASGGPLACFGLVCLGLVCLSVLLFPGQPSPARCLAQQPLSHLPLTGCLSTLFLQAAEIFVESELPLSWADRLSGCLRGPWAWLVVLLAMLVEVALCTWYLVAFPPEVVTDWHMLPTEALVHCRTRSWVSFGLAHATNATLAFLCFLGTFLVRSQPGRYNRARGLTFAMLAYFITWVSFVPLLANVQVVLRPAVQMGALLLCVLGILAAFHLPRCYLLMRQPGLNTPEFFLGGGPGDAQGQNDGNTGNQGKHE
Excerpt: as §1

[2] = tested on: Mock transfected HEK293T/Gα16-gustducin 44 cells; assay: Fluo-4 calcium assay, negative control mock transfection (Examples 6a, 6b); assay type: cell-based, human; settings: mean of six replicates, Calcium Chloride (2 mM), Sucralose (0.5 mM), perillartine (50 μM); for Neg. control (mock transfection) AVG (net increase in fluorescence over baseline): Example 6a, aspartame (0.85 mM), cinnamonitrile (100 EM), cyclamate (1 mM), NDHC (0.33 mM); for Neg. control (mock transfection) AVG (mean ΔF/F): Example 6b
Excerpt: as §1

[3] = molecular target: T3, CSR::T1R2-b/CSR::T1R3-b chimeric heterodimer (Homo sapiens, UniProt P41180+Q7RTX0+Q8TE23); assay: Fluo-4 calcium assay, transiently transfected HEK293T/Gα16-gustducin 44 cells (Example 6b); settings: mean of six replicates; Calcium Chloride (2 mM), Sucralose (0.5 mM), perillartine (50 μM)
T3 sequence (P41180+Q8TE23 with tags, fused parts or gaps): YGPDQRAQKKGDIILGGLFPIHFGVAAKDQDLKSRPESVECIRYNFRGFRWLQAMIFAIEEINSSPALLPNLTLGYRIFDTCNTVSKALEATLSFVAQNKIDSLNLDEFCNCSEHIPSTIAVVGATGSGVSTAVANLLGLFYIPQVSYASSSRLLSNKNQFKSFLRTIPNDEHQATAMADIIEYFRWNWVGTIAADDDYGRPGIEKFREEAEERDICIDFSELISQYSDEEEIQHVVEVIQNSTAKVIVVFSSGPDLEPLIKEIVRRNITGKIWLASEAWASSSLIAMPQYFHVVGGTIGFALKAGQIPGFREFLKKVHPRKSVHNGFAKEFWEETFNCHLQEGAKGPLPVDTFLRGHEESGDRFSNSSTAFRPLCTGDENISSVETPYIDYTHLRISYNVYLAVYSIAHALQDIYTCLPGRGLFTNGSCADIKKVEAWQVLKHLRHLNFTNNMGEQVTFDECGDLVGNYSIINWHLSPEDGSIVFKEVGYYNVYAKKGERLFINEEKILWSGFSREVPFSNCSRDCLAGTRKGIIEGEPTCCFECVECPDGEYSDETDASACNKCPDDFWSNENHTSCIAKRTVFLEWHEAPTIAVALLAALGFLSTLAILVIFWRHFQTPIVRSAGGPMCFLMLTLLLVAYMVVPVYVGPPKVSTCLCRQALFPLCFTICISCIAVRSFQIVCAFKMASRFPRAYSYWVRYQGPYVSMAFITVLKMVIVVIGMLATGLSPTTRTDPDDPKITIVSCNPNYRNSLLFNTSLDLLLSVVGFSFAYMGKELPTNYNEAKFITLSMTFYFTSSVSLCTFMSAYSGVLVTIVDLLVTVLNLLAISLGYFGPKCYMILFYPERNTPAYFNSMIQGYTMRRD
T3 sequence (P41180+Q7RTX0 with tags, fused parts or gaps): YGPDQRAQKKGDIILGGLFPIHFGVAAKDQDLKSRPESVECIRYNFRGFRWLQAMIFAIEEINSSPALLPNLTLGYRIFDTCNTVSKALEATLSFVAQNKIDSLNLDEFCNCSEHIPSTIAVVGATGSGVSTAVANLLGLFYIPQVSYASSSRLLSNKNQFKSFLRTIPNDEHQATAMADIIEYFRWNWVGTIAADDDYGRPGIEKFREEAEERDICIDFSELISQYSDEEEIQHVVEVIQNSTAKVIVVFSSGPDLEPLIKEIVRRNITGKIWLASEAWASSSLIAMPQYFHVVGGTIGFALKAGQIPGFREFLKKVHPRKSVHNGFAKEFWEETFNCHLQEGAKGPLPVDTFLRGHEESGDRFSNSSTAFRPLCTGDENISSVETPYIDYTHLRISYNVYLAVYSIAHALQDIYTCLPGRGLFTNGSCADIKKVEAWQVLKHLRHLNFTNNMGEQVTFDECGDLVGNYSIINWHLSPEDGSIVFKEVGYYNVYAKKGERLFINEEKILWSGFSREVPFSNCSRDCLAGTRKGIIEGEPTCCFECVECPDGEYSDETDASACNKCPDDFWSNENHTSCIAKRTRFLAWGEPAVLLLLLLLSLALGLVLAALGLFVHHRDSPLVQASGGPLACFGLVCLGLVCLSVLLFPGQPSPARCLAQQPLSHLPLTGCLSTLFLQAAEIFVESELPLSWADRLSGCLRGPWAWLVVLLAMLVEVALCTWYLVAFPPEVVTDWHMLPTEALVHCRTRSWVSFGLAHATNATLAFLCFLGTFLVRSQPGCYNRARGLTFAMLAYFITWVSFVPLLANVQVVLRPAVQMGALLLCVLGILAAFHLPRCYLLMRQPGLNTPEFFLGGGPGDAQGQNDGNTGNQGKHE
Description: (§2) Fluo-4 is a fluorescent indicator for intracellular calcium and allows to determine changes in the calcium concentration, in particular an increase in response to receptor activation occurring after ligand addition.
(§3) Black, clear-bottom 96-well plates were used for all assays. They were seeded the day before with 8500 transfected cells per well and maintained at 37° C. overnight in an a growth medium appropriate for the cells used. For HEK293 cells, Dulbecco's Modified Eagle medium containing high glucose, L-glutamine, pyroxidine hydrochloride, and supplemented with 10% fetal bovine serum was used for growth and maintenance of the HEK293 cells.
(§4) After the initial 1 hour loading period, the plates were washed 5 times with 100 μl per well of reduced calcium C1 buffer using an automated plate washer (BioTek) and after washing, the plate was further incubated for 30 minutes at room temperature in the dark to allow for complete de-esterification of the Fluo-4-AM. The buffer solutions were discarded, the plate was washed 5 times with 100 μl reduced calcium C1 wash buffer and finally the cells were reconstituted in 180 μl of reduced calcium C1 wash buffer.
(§5) For assay reading, the plate was placed in a FLIPR (fluorescence imaging plate reader (FLIPR-Tetra, Molecular Devices)), and receptor activation was initiated following addition of 20 μl of a 10× concentrated ligand stock solution, which were prepared in reduced calcium C1 buffer.
(§6) Receptor activation is given in relative fluorescence units (RFU) and is defined by the following equation: Fluorescence Increase=Maximum Fluorescence−baseline fluorescence, wherein the baseline fluorescence represents the mean fluorescence calculated for the first 10 to 15 seconds prior to ligand addition.
As a negative control, mock transfected cells were exposed to the same concentration of ligand and the concentration of calcium traces not corresponding to a signal was determined. […]
(§7) The calcium mobilization signals obtained are increase in peak fluorescence (F) normalized to the baseline fluorescence (F0). […]

CSR::T1R2-b homomer = molecular target: T4, CSR::T1R2-b homomer (Homo sapiens, UniProt P41180+Q8TE23); assay: as above; settings: mean of six replicates; Calcium Chloride (2 mM), Sucralose (0.5 mM), perillartine (50 μM)
T4 sequence (P41180+Q8TE23 with tags, fused parts or gaps): T3 sequence (P41180+Q8TE23 with tags, fused parts or gaps)
Description: as §2, §3, §4, §5, §6
As a negative control, mock transfected cells were exposed to the same concentration of ligand and the concentration of calcium traces not corresponding to a signal was determined.
as §7

Structure (SMILES) | response of hCaSR (in words) (hCaSR; Example 6a) | hCaSR AVG (net increase in fluorescence over baseline) (hCaSR) | T1R2/T1R3 AVG (mean ΔF/F) [1] | Neg. control (mock transfection) AVG (net increase in fluorescence over baseline) [2] | Neg. control (mock transfection) AVG (mean ΔF/F) [2] | CSR::T1R2-b/CSR::T1R3-b AVG (mean ΔF/F) [3] | CSR::R2-b alone AVG (mean ΔF/F) (CSR::T1R2-b homomer)
[Ca+2].[Cl-].[Cl-] [Calcium, Calcium Chloride] | responded | 7610 RFU | 0.19 ΔF/F | 1570 RFU | 0.20 ΔF/F | 0.46 ΔF/F | 0.424 ΔF/F
N#CC=Cc1ccccc1 [Cinnamonitrile] | – | 197 RFU | – | – | – | – | –
OC[C@H]1O[C@H](O[C@]2(CCl)O[C@H](CCl)[C@@H](O)[C@@H]2O)[C@H](O)[C@@H](O)[C@H]1Cl [Sucralose] | – | 22 RFU | 0.12 ΔF/F | – | 0.03 ΔF/F | 0.017 ΔF/F | 0.016 ΔF/F
COC(=O)[C@H](Cc1ccccc1)NC(=O)[C@@H](N)CC(=O)O [Aspartame] (H-Asp-Phe-OMe) | – | 41 RFU | – | −125 RFU | – | – | –
C=C(C)[C@@H]1CC=C(/C=N/O)CC1 [Perillartine] | – | 73 RFU | 0.5 ΔF/F | −379 RFU | 0.06 ΔF/F | 0.169 ΔF/F | 0.11 ΔF/F
